Source: patent US10413541B2, “Oxabicycloheptanes and oxabicycloheptenes for the treatment of depressive and stress disorders” (LIXTE BIOTECHNOLOGY, INC., priority 2015, dated 2019)
Where two headings read alike, the source gives them in different places.

Legend:
[1] = test system: GABAB-GIRK currents in LHb neurons; assay: In vivo LB100 treatment after foot-shock exposure (FsE), I-baclofen recorded in LHb slices; parameters: species or system mice; conditions: for FsE-induced decrease in I-baclofen (CTRL vs FsE): 7 days after FsE; for FsE-induced I-baclofen attenuation (CTRL vs FsE): one day after FsE
Experimental: (§1) The inescapable shock procedure was previously described in Stamatakis and Stuber 2012. Briefly, we placed mice into standard mouse behavioral chambers (Imetronics) equipped with a metal grid floor. We let them to habituate at the new environment for 5 m. In a 20 m session animals received either 19 or 0 unpredictable foot shocks (1 mA, 500 ms) with an interstimulus interval of 30, 60 or 90 s. We anesthetized mice for patch-clamp electrophysiology 1 h, 24 h, 7 d, 14 d or 30 d after the session ended.
Cell-attached recordings in ACSF were performed in GΩ seal with a Vc=0 and Hc=0. Whole-cell voltage clamp recordings were achieved to measure GABAB-GIR currents in presence of Bicuculine (10 μM), NBQX (20 μM) and AP5 (50 μM). […] GABAB-GIRK currents were confirmed by antagonism with either 10 μM of CGP54626, a specific GABAB antagonist or 1 mM Ba^2, a selective inhibitor of inward rectifiers. For the GTPγS experiment, 100 μM of GTPγS was added to the internal solution in place of Na3GTP.
(§2) For LB treatment experiments, mice were injected with LB (1.5 mg/Kg i.p.) or saline 6-8 hours after the FsE. The effects of the treatment on the LHb excitability and GABAB-GIRKs currents as well as the behavioural assay were assessed at day 1 or 7. For both electrophysiology and behaviour once treated the animal were housed in groups of 4-6 and let undisturbed until the day of the test.

LHb neurons [2] = assay: In vivo LB100 treatment after FsE, LHb neuronal excitability (input-output curve) in slices; parameters: species or system mice; conditions: LB100 1.5 mg/kg ip 6-8 h after FsE
Experimental: as §1
(§3) For the Okadaic acid (OA) and the CaMKII inhibitor KN93 experiments, respectively 100 nM of OA or 10 μM of KN93 were added in the internal solution. For the PP2A inhibitor LB100 experiments, LB100 (0.1 μM) was applied in the bath. Miniature excitatory postsynaptic currents (mEPSCs) were recorded in voltage-clamp mode at −60 mV in presence of bicuculine (10 μM) and TTX (1 μM). Miniature inhibitory postsynaptic currents (mIPSCs) were recorded (−60 mV) in presence of NBQX (20 μM) and TTX (1 μM). EPSCs and IPSCs were evoked through an ACSF filled monopolar glass electrode placed 200 μm from the recording site in the stria medullaris. AMPA:NMDA ratios of evoked-EPSC were obtained by AMPA-EPSC −60 mV/NMDA-EPSCs at +40 mV. Rectification Index (RI) was computed by […]-60/AMPA-EPSC+40. For the experiments in which high-frequency stimulation trains were used to determine presynaptic release probability, QX314 (5 mM) was included in the internal solution to prevent the generation of sodium spikes. Current-clamp experiments, were performed by a series of current steps (negative to positive) injected to induce action potentials (5-10 pA injection current per step, 800 ms).
as §2

cancer cells = conditions: cited from earlier work; for Anti-cancer activity when used alone: mouse model systems (Lu et al. 2009a)
[3] = test system: GABAB-GIRK currents in LHb neurons; format: cell-based, mice; conditions: LB100 0.1 μM in the bath; for I-baclofen current: mean±s.e.m.
LHb neurons [4] = assay: Current-clamp excitability (evoked action potentials, input-output curve) of LHb neurons in slices; format: cell-based, mice; conditions: LB100 0.1 μM in the bath
Experimental: Animals were anesthetized with Ketamine/Xylazine (50 mg/10 mg Kg-1 i.p.; Sigma-Aldrich, France). The preparation of LHb-containing brain slices was done in bubbled ice-cold 95% O2/5% CO2-equilibrated solution containing (in mM): cholineCl 110; glucose 25; NaHCO3 25; MgCl2 7; ascorbic acid 11.6; Na+-pyruvate 3.1; KCl 2.5; NaH2PO4 1.25; CaCl2 0.5. Sagittal slices (250 μm) were stored at room temperature in 95% O2/5% CO2-equilibrated artificial cerebrospinal fluid (ACSF) containing (in mM): NaCl 124; NaHCO3 26.2; glucose 11; KCl 2.5; CaCl2 2.5; MgCl2 1.3; NaH2PO4 1. Recordings (flow rate of 2.5 ml/min) were made under an Olympus-BX51 microscope (Olympus, France) at 32° C. Currents were amplified, filtered at 5 kHz and digitized at 20 kHz. Access resistance was monitored by a step of −4 mV (0.1 Hz). Experiments were discarded if the access resistance increased more than 20%.
The internal solution to measure GABAB-GIRK currents and neuronal excitability contained 140 mM potassium gluconate, 4 mM NaCl, 2 mM MgCl2, 1.1 mM EGTA, 5 mM HEPES, 2 mM Na2ATP, 5 mM sodium creatine phosphate, and 0.6 mM Na3GTP (pH 7.3), with KOH. When we measured the synaptic inhibitory or excitatory release the internal solution contained (in mM): CsCl 130; NaCl 4; MgCl2 2; EGTA 1.1; HEPES 5; Na2ATP 2; Na+-creatine-phosphate 5; Na3GTP 0.6, and spermine 0.1. The liquid junction potential was −3 mV. For cell-attached recordings the internal solution consisted in ACSF.
as §3

C57Bl/6J mice = assay: Forced swim test after FsE; format: in vivo; conditions: for FsE-driven impairment in the forced swim test (depressive-like phenotype): LB100 ip 6-8 h after FsE, 7 days after FsE
Experimental: as §1, §2
Forced swim test was conducted under normal light condition as previously described (Meye, Valentinova, Lecca et al 2015). Mice were placed in a cylinder of water (temperature 23-25° C.; 14 cm in diameter, 27 cm in height for mice) for six min. The depth of water was set to prevent animals from touching the bottom with their hind limbs. Animal behavior was videotracked from the top (Viewpoint, France). The latency to the first immobility event and the immobility time of each animal spent during the test was counted online by two independent observer blind of the animal treatments. Immobility was defined as floating or remaining motionless, which means absence of all movement except motions required to maintain the head above the water.

[5] = LB100 1.5 mg/kg ip 6-8 h after FsE, 1.5 mg/kg
[6] = LB100 1.5 mg/kg ip 6-8 h after FsE, listed as LB-100, 1.5 mg/kg
[7] = LB-100 ip 6-8 h after FsE, FST 7 days after FsE

CN1CCN(C(=O)C2C(C(=O)O)[C@H]3CC[C@@H]2O3)CC1 (some centres unmarked) [LB100]
I-baclofen current ([1]; LB100 1.5 mg/kg ip 6-8 h after FsE protocol, recorded one day after, CTRL mice): 93.88±18.37 pA | FsE-induced decrease in I-baclofen (CTRL vs FsE) [1, 5]: able to revert | FsE-induced decrease in I-baclofen (CTRL vs FsE) [1, 6]: comparable | FsE-induced I-baclofen attenuation (CTRL vs FsE) [1, 5]: not present | FsE-induced I-baclofen attenuation (CTRL vs FsE) [1, 6]: comparable | I-baclofen current ([1]; LB100 1.5 mg/kg ip 6-8 h after FsE, recorded one day after, FsE mice): 97.00±18.05 pA | I-baclofen current ([1]; single injection of LB100 6-8 hours after the shock protocol, recorded 7 days later, CTRL mice): 95.54±30.00 pA | I-baclofen current ([1]; single injection of LB100 6-8 hours after the shock, recorded 7 days later, FsE mice): 92.97±14.84 pA | LHb neuronal excitability, input-output curve CTRL vs FsE (LHb neurons [2]; 7 days after, 1.5 mg/kg): able to abolish the increase in excitability | LHb neuronal excitability, input-output curve CTRL vs FsE (LHb neurons [2]; 7 days after, listed as LB-100, 1.5 mg/kg): normalized | LHb neuronal excitability, input-output curve CTRL vs FsE (LHb neurons [2]; one day after, 1.5 mg/kg): did not show any difference | LHb neuronal excitability, input-output curve CTRL vs FsE (LHb neurons [2]; one day after, listed as LB-100, 1.5 mg/kg): normalized | Toxicity in combination with standard cytotoxic anti-cancer drugs (cancer cells; in vivo): without observable increase in toxicity | Anti-cancer activity when used alone (cancer cells): has anti-cancer activity | Anti-cancer activity when used alone (cancer cells; listed as LB-100): inhibits the growth of cancer cells | Potentiation in vivo of anti-tumor activity of standard cytotoxic anti-cancer drugs (cancer cells; with temozolomide, doxorubicin, docetaxel): significantly potentiates | FsE-induced inhibition of GABAB-GIRK currents (I-baclofen CTRL vs FsE) [3]: sufficient to rescue | I-baclofen current ([3]; slices from CTRL mice): 88.41±18.64 pA | I-baclofen current ([3]; slices from FsE mice): 85.09±0.67 pA | FsE-induced inhibition of GABAB-GIRK currents (I-baclofen CTRL vs FsE) ([3]; listed as LB-100): comparable | FsE-induced hyperexcitability of LHb neurons (input-output curve, CTRL vs FsE) (LHb neurons [4]): completely abolished | FsE-induced hyperexcitability of LHb neurons (input-output curve, CTRL vs FsE) (LHb neurons [4]; listed as LB-100): comparable to control conditions | FsE-driven impairment in the forced swim test (depressive-like phenotype) (C57Bl/6J mice): sufficient to rescue the impairment | FsE-driven impairment in the forced swim test (depressive-like phenotype) (C57Bl/6J mice; listed as LB-100): behavioral normalization | Latency to the first immobility, control vs FsE group (C57Bl/6J mice; [7]): comparable | Total immobility, control vs FsE group (C57Bl/6J mice; [7]): comparable
